From publication PMC6540285, “Evaluation of Protein Kinase Inhibitors with PLK4 Cross-Over Potential in a Pre-Clinical Model of Cancer” (International Journal of Molecular Sciences, 2019)
pIC50: −log10 of the molar value.

What was measured:
[1] = target: HCK (Homo sapiens, UniProt P08631); experiment: SelectScreen kinase profiling, ZLYTE; type: biochemical
[2] = target: HIPK1 (Myak) (Homo sapiens, UniProt Q86Z02); experiment: SelectScreen kinase profiling, ZLYTE; type: biochemical
[3] = target: P450 2B6 (Homo sapiens, UniProt P20813); experiment: SelectScreen P450 Vivid biochemical assay; conditions: 10000nM; substrate BOMCC
[4] = target: PLK3 (Homo sapiens, UniProt Q9H4B4); experiment: SelectScreen kinase profiling, ZLYTE; type: biochemical; conditions: PLK3, 10 µM
[5] = target: MAP2K4 (MEK4) (Homo sapiens, UniProt P45985); experiment: SelectScreen kinase profiling, LanthaScreen binding
[6] = target: CDC7/DBF4 (Homo sapiens, UniProt O00311); experiment: as above; conditions: CDC7/DBF4, 10 µM
[7] = target: CYP3A4 (Homo sapiens, UniProt P08684); experiment: SelectScreen P450 Vivid biochemical assay; conditions: 10000nM
CYP3A4, sequence (P08684 whole entry): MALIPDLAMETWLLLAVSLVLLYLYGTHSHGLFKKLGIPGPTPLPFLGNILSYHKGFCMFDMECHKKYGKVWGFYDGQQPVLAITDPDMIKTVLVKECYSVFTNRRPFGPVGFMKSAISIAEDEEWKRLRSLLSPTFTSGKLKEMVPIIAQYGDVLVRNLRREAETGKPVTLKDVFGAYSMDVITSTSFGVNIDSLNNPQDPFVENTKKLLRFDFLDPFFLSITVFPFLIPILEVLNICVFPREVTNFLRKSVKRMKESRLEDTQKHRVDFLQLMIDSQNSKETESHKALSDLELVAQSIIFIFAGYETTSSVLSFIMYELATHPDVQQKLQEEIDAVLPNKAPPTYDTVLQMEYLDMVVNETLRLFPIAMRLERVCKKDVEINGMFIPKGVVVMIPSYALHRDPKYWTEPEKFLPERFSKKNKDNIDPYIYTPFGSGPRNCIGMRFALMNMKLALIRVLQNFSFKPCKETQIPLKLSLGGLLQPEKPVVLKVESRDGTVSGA

[8] = target: PAK6 (Homo sapiens, UniProt Q9NQU5); experiment: SelectScreen kinase profiling, ZLYTE; type: biochemical; conditions: PAK6, 10 µM
PAK6, sequence (Q9NQU5 whole entry): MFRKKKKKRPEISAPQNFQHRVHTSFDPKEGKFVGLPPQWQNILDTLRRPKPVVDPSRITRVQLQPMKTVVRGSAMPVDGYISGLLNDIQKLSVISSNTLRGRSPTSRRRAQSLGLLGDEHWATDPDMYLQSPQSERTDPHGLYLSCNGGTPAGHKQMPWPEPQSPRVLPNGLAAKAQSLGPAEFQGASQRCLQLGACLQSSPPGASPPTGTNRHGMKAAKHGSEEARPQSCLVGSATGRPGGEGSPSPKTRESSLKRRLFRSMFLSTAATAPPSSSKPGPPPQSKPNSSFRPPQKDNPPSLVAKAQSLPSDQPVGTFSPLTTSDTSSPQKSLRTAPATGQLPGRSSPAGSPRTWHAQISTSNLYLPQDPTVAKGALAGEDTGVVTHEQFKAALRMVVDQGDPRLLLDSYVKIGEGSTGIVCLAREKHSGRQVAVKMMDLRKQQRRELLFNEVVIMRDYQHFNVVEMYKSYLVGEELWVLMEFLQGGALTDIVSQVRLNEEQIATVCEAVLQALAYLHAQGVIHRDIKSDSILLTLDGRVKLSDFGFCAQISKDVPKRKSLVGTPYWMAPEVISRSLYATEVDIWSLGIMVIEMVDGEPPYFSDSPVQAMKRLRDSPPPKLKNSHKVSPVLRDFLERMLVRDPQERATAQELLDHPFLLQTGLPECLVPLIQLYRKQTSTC

[9] = target: ACVR1 (ALK2) R206H (Homo sapiens, UniProt Q04771, R206H); experiment: SelectScreen kinase profiling, LanthaScreen binding
[10] = target: SPHK2 (Homo sapiens, UniProt Q9NRA0); experiment: SelectScreen kinase profiling, Adapta; type: biochemical; conditions: SPHK2, 10 µM
[11] = target: FGFR1 (Homo sapiens, UniProt P11362); experiment: SelectScreen kinase profiling, ZLYTE; type: biochemical; conditions: FGFR1, 10 µM
[12] = target: CDC42 BPG (MRCKG) (Homo sapiens, UniProt Q6DT37); experiment: SelectScreen kinase profiling, ZLYTE; type: biochemical
[13] = system: D283 cells; type: cell-based; conditions: D283, read-out: MTT: IC50 of the proliferation assay
[14] = target: RET Y791F (Homo sapiens, UniProt P07949, Y791F); experiment: SelectScreen kinase profiling, ZLYTE; type: biochemical
[15] = target: PAK4 (Homo sapiens, UniProt O96013); experiment: SelectScreen kinase profiling, ZLYTE; type: biochemical; conditions: PAK4, 10 µM
[16] = system: BT-16 cells; type: cell-based; conditions: BT-16, read-out: MTT: IC50 of the proliferation assay
[17] = target: STK17B (DRAK2) (Homo sapiens, UniProt O94768); experiment: SelectScreen kinase profiling, LanthaScreen binding
STK17B (DRAK2), sequence (O94768 whole entry): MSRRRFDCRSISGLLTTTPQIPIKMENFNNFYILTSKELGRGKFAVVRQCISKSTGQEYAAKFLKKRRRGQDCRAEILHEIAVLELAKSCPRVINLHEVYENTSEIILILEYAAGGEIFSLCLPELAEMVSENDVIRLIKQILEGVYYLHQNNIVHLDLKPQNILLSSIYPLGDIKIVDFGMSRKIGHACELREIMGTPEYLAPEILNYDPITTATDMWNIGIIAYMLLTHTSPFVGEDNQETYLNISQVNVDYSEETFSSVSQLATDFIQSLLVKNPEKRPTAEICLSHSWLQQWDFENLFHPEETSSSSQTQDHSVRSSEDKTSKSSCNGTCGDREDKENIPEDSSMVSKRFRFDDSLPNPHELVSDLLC

[18] = target: RET G691S (Homo sapiens, UniProt P07949, G691S); experiment: as above
[19] = target: PDK1 (Homo sapiens, UniProt O15530); experiment: SelectScreen kinase profiling, ZLYTE; type: biochemical; conditions: PDK1, 10 µM
[20] = target: AMPK (A2/B1/G2) (Homo sapiens, UniProt P54646); experiment: SelectScreen kinase profiling, ZLYTE; type: biochemical
[21] = target: PRKCA (PKC alpha) (Homo sapiens, UniProt P17252); experiment: SelectScreen kinase profiling, ZLYTE; type: biochemical
[22] = target: DMPK (Homo sapiens, UniProt Q09013); experiment: SelectScreen kinase profiling, LanthaScreen binding
[23] = target: CSF1R (FMS) (Homo sapiens, UniProt P07333); experiment: SelectScreen kinase profiling, ZLYTE; type: biochemical
[24] = target: IRAK3 (Homo sapiens, UniProt Q9Y616); experiment: SelectScreen kinase profiling, LanthaScreen binding; conditions: IRAK3, 10 µM
[25] = target: MAPK14 (p38 alpha) (Homo sapiens, UniProt Q16539); experiment: SelectScreen kinase profiling, ZLYTE; type: biochemical
[26] = target: FRK (PTK5) (Homo sapiens, UniProt P42685); experiment: SelectScreen kinase profiling, ZLYTE; type: biochemical
FRK (PTK5), sequence (P42685 whole entry): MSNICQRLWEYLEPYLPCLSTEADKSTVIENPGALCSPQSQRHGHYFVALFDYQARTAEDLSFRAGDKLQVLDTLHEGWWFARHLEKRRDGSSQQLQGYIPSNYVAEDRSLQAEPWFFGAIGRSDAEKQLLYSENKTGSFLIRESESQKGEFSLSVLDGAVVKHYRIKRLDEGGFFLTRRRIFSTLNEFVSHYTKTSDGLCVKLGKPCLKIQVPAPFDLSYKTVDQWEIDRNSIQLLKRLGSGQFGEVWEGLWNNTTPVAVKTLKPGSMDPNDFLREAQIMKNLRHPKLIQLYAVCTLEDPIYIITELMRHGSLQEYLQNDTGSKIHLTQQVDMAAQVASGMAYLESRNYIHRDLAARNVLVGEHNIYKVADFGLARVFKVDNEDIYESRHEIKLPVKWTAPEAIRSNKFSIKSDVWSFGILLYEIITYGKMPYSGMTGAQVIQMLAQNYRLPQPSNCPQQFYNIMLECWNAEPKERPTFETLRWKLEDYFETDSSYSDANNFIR

[27] = target: MAP2K6 (MKK6) (Homo sapiens, UniProt P52564); experiment: SelectScreen kinase profiling, ZLYTE; type: biochemical
[28] = target: TEC (Homo sapiens, UniProt P42680); experiment: SelectScreen kinase profiling, LanthaScreen binding
Text: (§1) Kinase Technology % Inhibition Avg Kinase Technology % Inhibition Avg […]

[29] = target: STK32C (YANK3) (Homo sapiens, UniProt Q86UX6); experiment: as above
Text: as §1

[30] = target: TEK (TIE2) R849W (Homo sapiens, UniProt Q02763, R849W); experiment: as above
Text: as §1

[31] = target: WNK1 (Homo sapiens, UniProt Q9H4A3); experiment: as above; conditions: WNK1, 10 µM
Text: as §1

[32] = target: TAOK3 (JIK) (Homo sapiens, UniProt Q9H2K8); experiment: as above
Text: as §1

[33] = target: STK38L (NDR2) (Homo sapiens, UniProt Q9Y2H1); experiment: as above
Text: as §1

[34] = target: VRK2 (Homo sapiens, UniProt Q86Y07); experiment: as above; conditions: VRK2, 10 µM
VRK2, sequence (Q86Y07 whole entry): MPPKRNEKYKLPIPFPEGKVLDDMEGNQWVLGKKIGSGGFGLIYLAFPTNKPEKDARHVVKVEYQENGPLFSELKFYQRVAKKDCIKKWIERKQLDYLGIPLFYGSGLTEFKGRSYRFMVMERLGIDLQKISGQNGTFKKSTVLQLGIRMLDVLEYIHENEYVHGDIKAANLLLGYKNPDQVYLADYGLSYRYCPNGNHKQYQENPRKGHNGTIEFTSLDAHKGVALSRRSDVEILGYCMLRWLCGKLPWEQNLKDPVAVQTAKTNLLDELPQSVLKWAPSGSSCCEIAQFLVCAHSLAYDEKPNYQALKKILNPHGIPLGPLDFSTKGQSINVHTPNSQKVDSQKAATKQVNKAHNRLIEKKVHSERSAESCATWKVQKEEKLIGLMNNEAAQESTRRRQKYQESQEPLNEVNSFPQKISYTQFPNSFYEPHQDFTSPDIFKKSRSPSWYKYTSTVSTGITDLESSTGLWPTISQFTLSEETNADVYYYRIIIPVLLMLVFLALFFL
Text: as §1

[35] = target: TTK (Homo sapiens, UniProt P33981); experiment: as above
Text: as §1

[36] = target: WNK3 (Homo sapiens, UniProt Q9BYP7); experiment: as above; conditions: WNK3, 10 µM
Text: as §1

[37] = target: TNK2 (ACK) (Homo sapiens, UniProt Q07912); experiment: as above
TNK2 (ACK), sequence (Q07912 whole entry): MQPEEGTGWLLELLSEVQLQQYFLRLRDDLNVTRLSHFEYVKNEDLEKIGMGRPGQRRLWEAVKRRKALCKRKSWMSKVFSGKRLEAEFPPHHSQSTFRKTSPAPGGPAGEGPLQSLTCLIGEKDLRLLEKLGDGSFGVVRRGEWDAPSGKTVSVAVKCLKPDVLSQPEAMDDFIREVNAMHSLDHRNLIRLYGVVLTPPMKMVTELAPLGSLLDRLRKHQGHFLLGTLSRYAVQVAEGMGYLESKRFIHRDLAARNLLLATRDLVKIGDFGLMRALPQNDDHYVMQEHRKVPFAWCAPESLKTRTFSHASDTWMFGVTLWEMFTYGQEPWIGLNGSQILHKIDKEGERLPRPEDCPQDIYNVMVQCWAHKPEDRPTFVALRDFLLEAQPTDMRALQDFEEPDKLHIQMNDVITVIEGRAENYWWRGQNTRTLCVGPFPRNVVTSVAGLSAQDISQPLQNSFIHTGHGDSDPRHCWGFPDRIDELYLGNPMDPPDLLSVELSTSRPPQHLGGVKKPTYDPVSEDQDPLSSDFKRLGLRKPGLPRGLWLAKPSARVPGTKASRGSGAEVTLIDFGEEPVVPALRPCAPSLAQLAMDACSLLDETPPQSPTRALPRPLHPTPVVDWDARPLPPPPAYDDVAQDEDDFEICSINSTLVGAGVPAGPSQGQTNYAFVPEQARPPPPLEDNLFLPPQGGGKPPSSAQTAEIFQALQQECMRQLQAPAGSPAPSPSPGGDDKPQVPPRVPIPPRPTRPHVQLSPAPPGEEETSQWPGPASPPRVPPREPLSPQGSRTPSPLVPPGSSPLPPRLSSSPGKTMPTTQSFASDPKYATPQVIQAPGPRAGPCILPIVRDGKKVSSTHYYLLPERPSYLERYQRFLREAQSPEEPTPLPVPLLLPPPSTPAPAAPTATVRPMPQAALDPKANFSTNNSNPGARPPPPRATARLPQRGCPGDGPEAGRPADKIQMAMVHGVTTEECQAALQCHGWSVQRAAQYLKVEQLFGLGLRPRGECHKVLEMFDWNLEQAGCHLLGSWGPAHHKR
Text: as §1

[38] = target: STK39 (STLK3) (Homo sapiens, UniProt Q9UEW8); experiment: as above
Text: as §1

[39] = target: TLK2 (Homo sapiens, UniProt Q86UE8); experiment: as above; conditions: TLK2, 10 µM
TLK2, sequence (Q86UE8 whole entry): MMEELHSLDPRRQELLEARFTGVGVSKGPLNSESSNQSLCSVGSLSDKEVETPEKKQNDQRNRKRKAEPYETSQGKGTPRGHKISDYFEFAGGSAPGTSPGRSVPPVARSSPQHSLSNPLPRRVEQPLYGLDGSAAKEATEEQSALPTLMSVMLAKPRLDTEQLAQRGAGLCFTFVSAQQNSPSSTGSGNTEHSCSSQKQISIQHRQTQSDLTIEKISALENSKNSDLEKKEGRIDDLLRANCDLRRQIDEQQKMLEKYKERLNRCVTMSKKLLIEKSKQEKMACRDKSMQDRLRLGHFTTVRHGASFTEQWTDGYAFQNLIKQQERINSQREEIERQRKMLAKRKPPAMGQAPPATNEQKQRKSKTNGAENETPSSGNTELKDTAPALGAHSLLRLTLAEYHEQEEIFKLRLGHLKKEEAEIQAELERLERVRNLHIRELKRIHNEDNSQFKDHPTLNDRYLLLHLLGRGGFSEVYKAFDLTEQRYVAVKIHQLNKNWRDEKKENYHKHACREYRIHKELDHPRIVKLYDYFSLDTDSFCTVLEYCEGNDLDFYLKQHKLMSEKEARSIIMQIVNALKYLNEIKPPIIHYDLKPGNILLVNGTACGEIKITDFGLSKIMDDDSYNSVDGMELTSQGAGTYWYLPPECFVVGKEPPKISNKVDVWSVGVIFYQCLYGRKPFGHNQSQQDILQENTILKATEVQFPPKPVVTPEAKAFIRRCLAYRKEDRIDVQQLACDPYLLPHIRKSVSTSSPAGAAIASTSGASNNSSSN
Text: as §1

## O=C(c1ccc(/C=C/c2n[nH]c3ccccc23)cc1)N1CCNCC1 [KW-2449]
[1]
  inhibition at 10 µM: 90%
[2]
  inhibition at 10 µM: 70%
[3]
  % Inhibition 2B6 BOMCC: 48%
[4]
  inhibition at 10 µM: -10%
[5]
  inhibition at 10 µM: 79%
[6]
  inhibition at 10 µM: 16%
[7]; substrate BOMCC
  % Inhibition 3A4 BOMCC: 63%
[7]; substrate DBOMF
  % Inhibition 3A4 DBOMF: 46%
[8]
  inhibition at 10 µM: 60%
[9]
  inhibition at 10 µM: 69%
[10]
  inhibition at 10 µM: 7%
[11]
  inhibition at 10 µM: 96%
[12]
  inhibition at 10 µM: 68%
[13]
  pIC50: 5.09
[14]
  inhibition at 10 µM: 100%
[15]
  inhibition at 10 µM: 94%
[16]
  pIC50: < 5.00
[17]
  inhibition at 10 µM: 58%
[18]
  inhibition at 10 µM: -30%
[19]
  inhibition at 10 µM: 77%
[20]
  inhibition at 10 µM: 97%
[21]
  inhibition at 10 µM: 61%
[22]
  inhibition at 10 µM: 77%
[23]
  inhibition at 10 µM: 99%
[24]
  inhibition at 10 µM: 31%
[25]
  inhibition at 10 µM: 33%
[26]
  inhibition at 10 µM: 90%
[27]
  inhibition at 10 µM: 79%
[28]
  inhibition at 10 µM: -9%
[29]
  inhibition at 10 µM: 62%
[30]
  inhibition at 10 µM: -5%
[31]
  inhibition at 10 µM: 2%
[32]
  inhibition at 10 µM: 25%
[33]
  inhibition at 10 µM: 59%
[34]
  inhibition at 10 µM: 32%
[35]
  inhibition at 10 µM: 54%
[36]
  inhibition at 10 µM: 7%
[37]
  inhibition at 10 µM: 71%
[38]
  inhibition at 10 µM: 38%
[39]
  inhibition at 10 µM: 33%
